From the NIST ThermoML archive (doi:10.1016/j.fluid.2009.03.017)
± gives the expanded uncertainty stated by the source.

Key:
[1] = refractive index (Na D-line) (dimensionless); settings: 293.1 K; 101.33 kPa; Liquid; Standard Abbe refractometry
[2] = 298.1 K; 101.33 kPa; Liquid; Vibrating tube method

Compound | refractive index [1] | mass density [2] [kg/m3]
C1COCCO1 [1,4-dioxane] | 1.422 ± 0.0007 | 1025.9 ± 0.1
C=CC(C)CCC=C(C)C (centres undefined) [3,7-dimethyl-1,6-octadiene] | 1.4416 ± 0.0007 | 766.8 ± 0.2
